Data set [1] concerns HT-22. Description: In vitro safety index as ratio of MTC/PC50 was determined for HT-22 hippocampal cell cultures of mouse by MTT reduction assay. In kind it is functional. (Tetrazolium dyes change colour on reduction, which living cells bring about.)
Data set [2] deals with HT-22. Description: In vitro toxic concentration against HT-22 hippocampal cell cultures of mouse by LDH assay. It is filed as functional. The settings on record: read-out: TC50 (the source's name).
Data set [3] concerns HT-22. Description: In vitro maximum tolerated concentration against HT-22 hippocampal cell cultures of mouse by MTT reduction assay. In kind it is functional.
The subject of data set [4] is HT-22. Description: In vitro safety index as ratio of MTC/PC50 was determined for HT-22 hippocampal cell cultures of mouse by LDH assay. It is filed as functional.
Data set [5] deals with HT-22. Description: In vitro protective concentration of compound for HT-22 hippocampal cell cultures of mouse against 2 mM L-homocysteic acid in MTT reduction assay. It is filed as functional.
For data set [6], the system named is HT-22. Description: In vitro maximum tolerated concentration against HT-22 hippocampal cell cultures of mouse by LDH assay. It is filed as functional.
Data set [7] relates to HT-22. Description: In vitro protective concentration of compound for HT-22 hippocampal cell cultures of mouse against 2 mM L-homocysteic acid in LDH assay. In kind it is functional.
Data set [8] can be described thus: Partition coefficient (logP). It is filed as physicochemical. The settings on record: octanol/water.
Data set [9] has as its system HT-22. The data set is described as follows: In vitro toxic concentration against HT-22 hippocampal cell cultures of mouse by MTT reduction assay. In kind it is functional. The settings on record: read-out: TC50 (the source's name).

A value given as a limit tells only on which side of the number the result lay.

Regarding `CC(C)(C)C1COc2c(NCCc3ccccc3)ccc(C(=O)c3ccccc3)c2N1` (configuration not stated), the Safety index in the data set on HT-22 [1] was over 100; in the data set with HT-22 [4], over 62.5. The CC50 in the data set on HT-22 [2] and in the data set on HT-22 [9] was over 250 µM in each case. For the same molecule, the MTC in the data set with HT-22 [3] and in the data set on HT-22 [6] was over 250 µM throughout. The results for the PC50 in the data set with HT-22 [5] and with HT-22 [7] were 2.5 µM and 4 µM, respectively. This molecule registered a logP in data set [8] of 5.28.
As for `O=C(c1ccccc1)c1ccc2c(c1O)NC(c1ccccc1)C(NCC(c1ccccc1)c1ccccc1)O2` (configuration not stated), the Safety index with HT-22 [1] is on record as over 25; in the data set with HT-22 [4], over 50. Further, the CC50 in the data set on HT-22 [2] and in the data set on HT-22 [9] was over 250 µM throughout. Also, the MTC in the data set on HT-22 [3] and in the data set on HT-22 [6] was over 250 µM in each case. Moreover, the PC50 in the data set on HT-22 [5] was 10 µM; in the data set on HT-22 [7], 5 µM.
Consider `O=C(c1ccccc1)c1ccc2c(c1O)NC1(CCCCC1)C(NCC1CCCCC1)O2` (configuration not stated), for which the Safety index in the data set with HT-22 [1] worked out at 20.8; with HT-22 [4] it was 667. In addition, the results for the CC50 with HT-22 [2] and with HT-22 [9] were over 250 µM and 16.5 µM, respectively. Besides, the MTC in the data set on HT-22 [3] worked out at 5 µM; with HT-22 [6], 100 µM. Also, the PC50 stood at 0.24 µM in the data set on HT-22 [5] and 0.15 µM in the data set on HT-22 [7].
In the case of `CC1(C)Nc2c(ccc(C(=O)c3ccccc3)c2O)OC1N1CCCCC1` (configuration not stated), the Safety index stood at 3.1 in the data set with HT-22 [1] and 24.4 with HT-22 [4]. Moreover, the CC50 with HT-22 [2] worked out at 120 µM; with HT-22 [9], 72 µM. In addition, the MTC in the data set with HT-22 [3] came out at 10 µM; in the data set with HT-22 [6] it was 100 µM. The PC50 was 3.2 µM in the data set with HT-22 [5] and 4.1 µM in the data set on HT-22 [7].
With `O=C(c1ccccc1)c1ccc2c(c1O)NC1(CCCCC1)C(N1CCOCC1)O2` (configuration not stated), the results for the Safety index in the data set with HT-22 [1] and with HT-22 [4] were 1.8 and 2.1, respectively. For the same molecule, the figures for the CC50 with HT-22 [2] and with HT-22 [9] were 10.4 µM and 8.2 µM, respectively. Also, the MTC in the data set on HT-22 [3] and in the data set with HT-22 [6] was 5 µM each time. In addition, the PC50 is 2.8 µM with HT-22 [5] and 2.4 µM in the data set on HT-22 [7].
On to `COC(CNC1Oc2ccc(C(=O)c3ccccc3)c(O)c2NC1c1ccccc1)OC` (configuration not stated), for which the Safety index with HT-22 [1] is on record as 20; in the data set on HT-22 [4] it was over 100. Moreover, the CC50 in the data set on HT-22 [2] and in the data set on HT-22 [9] was over 250 µM in each case. In addition, the MTC in the data set with HT-22 [3] was 100 µM; with HT-22 [6] it was over 250 µM. Moreover, the PC50 turned out to be 5 µM in the data set on HT-22 [5] and 2.5 µM with HT-22 [7].
With `CC(C)CNC1Oc2ccc(C(=O)c3ccccc3)c(O)c2NC1c1ccccc1` (configuration not stated), the results for the Safety index with HT-22 [1] and with HT-22 [4] were under 1 and 1, respectively. In addition, the CC50 in the data set on HT-22 [2] was determined as 79 µM; with HT-22 [9], 108 µM. Besides, the values for the MTC in the data set with HT-22 [3] and in the data set with HT-22 [6] were 5 µM and 10 µM, respectively. Further, the PC50 in the data set with HT-22 [5] and in the data set on HT-22 [7] was 10 µM each time.
As to `O=C(c1ccccc1)c1ccc2c(c1O)NC1(CCCCC1)C(O)O2` (configuration not stated), the results for the Safety index with HT-22 [1] and in the data set on HT-22 [4] were 6.2 and 16.6, respectively. The results for the CC50 in the data set with HT-22 [2] and with HT-22 [9] were over 250 µM and 178 µM, respectively. The MTC stood at 25 µM with HT-22 [3] and 50 µM in the data set with HT-22 [6]. Besides, the PC50 with HT-22 [5] amounted to 4 µM; with HT-22 [7], 3 µM.
Turning to `CC1(C)Nc2c(ccc(C(=O)c3ccccc3)c2O)OC1NCCc1ccccc1` (configuration not stated), the Safety index in the data set with HT-22 [1] worked out at 5; in the data set with HT-22 [4], 24.4. Moreover, the CC50 in the data set on HT-22 [2] is 199 µM; in the data set with HT-22 [9], 66 µM. Also, the MTC with HT-22 [3] stood at 10 µM; in the data set with HT-22 [6], 100 µM. For the same molecule, the PC50 with HT-22 [5] was 2 µM; with HT-22 [7], 4.1 µM.
With `CC1(C)Nc2c(ccc(C(=O)c3ccccc3)c2O)OC1N1CCOCC1` (configuration not stated), the Safety index in the data set with HT-22 [1] was determined as 5.9; in the data set on HT-22 [4], 66.7. In addition, the CC50 in the data set on HT-22 [2] was found to be 190 µM; in the data set with HT-22 [9] it was 75 µM. Moreover, the MTC in the data set with HT-22 [3] was determined as 10 µM; with HT-22 [6] it was 100 µM. In addition, the figures for the PC50 with HT-22 [5] and in the data set on HT-22 [7] were 1.7 µM and 1.5 µM, respectively.
As to `CC(C)CNC1Oc2ccc(C(=O)c3ccccc3)c(O)c2NC1(C)C` (configuration not stated), the figures for the Safety index in the data set with HT-22 [1] and with HT-22 [4] were 24.4 and 185, respectively. In addition, the CC50 in the data set with HT-22 [2] was 160 µM; in the data set on HT-22 [9], 45 µM. For the same molecule, the MTC with HT-22 [3] worked out at 10 µM; in the data set with HT-22 [6], 100 µM. The values for the PC50 in the data set on HT-22 [5] and in the data set with HT-22 [7] were 0.41 µM and 0.54 µM, respectively.
On to `CC1(C)Nc2c(ccc(C(=O)c3ccccc3)c2O)OC1O` (configuration not stated), for which the Safety index with HT-22 [1] is listed as 10.3; in the data set with HT-22 [4] it was 91. For the same molecule, the CC50 with HT-22 [2] was over 250 µM; in the data set on HT-22 [9], 48 µM. The results for the MTC with HT-22 [3] and with HT-22 [6] were 10 µM and 100 µM, respectively. Also, the PC50 was 0.97 µM with HT-22 [5] and 1.1 µM with HT-22 [7].
Turning to `CN(CC1OCCO1)C1Oc2ccc(C(=O)c3ccccc3)c(O)c2NC1c1ccccc1` (configuration not stated), the values for the Safety index in the data set with HT-22 [1] and in the data set on HT-22 [4] were 200 and over 250, respectively. Moreover, the CC50 in the data set on HT-22 [2] and with HT-22 [9] was over 250 µM throughout. The MTC in the data set with HT-22 [3] was 100 µM; in the data set on HT-22 [6], over 250 µM. The PC50 was 0.5 µM in the data set on HT-22 [5] and 1 µM in the data set on HT-22 [7]. Besides, the logP in data set [8] amounted to 5.57.
With `O=C(c1ccccc1)c1ccc(NCc2ccccc2)c2c1NC1(CCCC1)CO2`, the Safety index is over 15.8 in the data set with HT-22 [1] and over 17.4 in the data set on HT-22 [4]. Besides, the CC50 in the data set on HT-22 [2] and in the data set with HT-22 [9] was over 250 µM throughout. Also, the MTC in the data set on HT-22 [3] and in the data set on HT-22 [6] was over 250 µM throughout. Besides, the results for the PC50 in the data set with HT-22 [5] and in the data set with HT-22 [7] were 15.8 µM and 14.4 µM, respectively. In data set [8], this molecule returned a logP of 5.11.
In the case of `CN(CC1OCCO1)C1Oc2ccc(C(=O)c3ccccc3)c(O)c2NC12CCCCC2` (configuration not stated), the Safety index in the data set with HT-22 [1] is 2; in the data set with HT-22 [4], 11.4. Moreover, the CC50 in the data set on HT-22 [2] is over 250 µM; with HT-22 [9], 25 µM. Moreover, the results for the MTC with HT-22 [3] and in the data set with HT-22 [6] were 5 µM and 25 µM, respectively. Further, the PC50 came out at 2.4 µM with HT-22 [5] and 2.2 µM in the data set on HT-22 [7].
For the molecule `O=C(c1ccccc1)c1ccc2c(c1O)NC1(CCCC1)C(NCC1CCCC1)O2` (configuration not stated), the Safety index with HT-22 [1] worked out at 3.6; in the data set on HT-22 [4] it was 30.5. The results for the CC50 in the data set with HT-22 [2] and with HT-22 [9] were 53 µM and 27 µM, respectively. Also, the MTC in the data set with HT-22 [3] was 5 µM; in the data set with HT-22 [6], 25 µM. The PC50 in the data set on HT-22 [5] stood at 1.39 µM; with HT-22 [7], 0.82 µM.
In the case of `CC1(C)Nc2c(ccc(C(=O)c3ccccc3)c2O)OC1NC1CCCCC1` (configuration not stated), the Safety index in the data set on HT-22 [1] is reported as 4.2; in the data set on HT-22 [4], 47.6. In addition, the CC50 was 120 µM with HT-22 [2] and 29 µM with HT-22 [9]. For the same molecule, the MTC in the data set with HT-22 [3] was 10 µM; with HT-22 [6], 100 µM. Further, the PC50 in the data set with HT-22 [5] worked out at 2.4 µM; in the data set with HT-22 [7], 2.1 µM.
For `O=C(c1ccccc1)c1ccc2c(c1O)NC1(CCCCC1)C(N1CCCCC1)O2` (configuration not stated), the Safety index in the data set on HT-22 [1] is 8.1; in the data set with HT-22 [4], over 13.5. Moreover, the CC50 is over 250 µM in the data set on HT-22 [2] and 250 µM with HT-22 [9]. Moreover, the MTC with HT-22 [3] is 100 µM; in the data set on HT-22 [6] it was over 250 µM. Moreover, the PC50 in the data set on HT-22 [5] is 12.3 µM; in the data set with HT-22 [7] it was 18.5 µM.

The term logP denotes a log measure of how a compound divides between an organic and an aqueous phase.

The values above are taken from ChEMBL document CHEMBL1142676, “Novel 2-alkylamino-1,4-benzoxazine derivatives as potent neuroprotective agents: structure-activity relationship studies” (J Med Chem, 2005).
